Source: patent US20120071475A1, “UREA DERIVATIVES HAVING PI3K-INHIBITING ACTIVITY” (SHIONOGI & CO., LTD., priority 2009, published 2012)

Legend:
CYP3A4 = biological target: T1, CYP3A4 (Homo sapiens, UniProt P08684); test: CYP3A4 fluorescence MBI test; assay type: in vitro ADME; conditions: difference in IC50 with 0 or 30 minutes pre-reaction; CYP3A4 expressed in E. coli, substrate 7-BFC
T1 construct: host or cells: E. coli
Description: The CYP3A4 fluorescence MBI test is a test to examine the enhancement of CYP3A4 inhibition of a compound by a metabolic reaction. The test was performed using as an index, a reaction to produce a metabolite 7-hydroxytrifluoromethylcoumarin (HFC) which emits fluorescence, in which CYP3A4 expressed in E. coli was used as an enzyme and 7-benzyloxytrifluoromethylcoumarin (7-BFC) is debenzylated by CYP3A4 enzyme.
The reaction conditions are as follows: substrate: 5.6 μmol/L 7-BFC; pre-reaction time; 0 or 30 minutes; reaction time: 15 minutes; reaction temperature: 25° C. (room temperature); content of CYP3A4 (an enzyme expressed in E. coli): […] at the time of a pre-reaction and […] (when diluted 10 times) at the time of a reaction; the concentrations of a test drug: 0.625, 1.25, 2.5, 5, 10, and 20 μmol/L (6 points).
In a 96-well plate, an enzyme solution and a test drug solution were added as a pre-reaction solution into K-Pi buffer solution (pH 7.4) in the aforementioned ratio. A portion thereof was transferred to another 96-well plate to be diluted ten times with a substrate and a K-Pi buffer solution. A coenzyme, NADPH, was then added to start a reaction, which is the index (this is without a pre-reaction). After reacting for a predetermined time, 4:1 of acetonitrile: 0.5 mol/L Tris (trishydroxyaminomethane) was added to quench the reaction. To the remaining pre-reaction solution, NADPH was added to start a pre-reaction (this is with a pre-reaction). After pre-reacting for a predetermined time, a portion thereof was transferred to another plate to be diluted ten times with a substrate and K-Pi buffer solution, and thereby the index reaction is started. After reacting for a predetermined time, 4:1 of acetonitrile:0.5 mol/L Tris (trishydroxyaminomethane) was added to quench the reaction. For each plate in which the index reaction was carried out, the fluorescence value of a metabolite 7-HFC was measured with a fluorescent plate reader (Ex=420 nm, Em=535 nm).
The case wherein only DMSO (a solvent which dissolved a drug) was added to a reaction system was defined as a control (100%). When a test drug solution was added, the remaining activity (%) at each concentration was calculated, and then IC50 was calculated with a concentration and an inhibition ratio by an inverse estimation using a logistic model. When the difference in IC50 value is 5 μmol/L or more, the compound is shown as (+). When 3 μmol/L or less, the compound is shown as (−).

PI3Kγ = PI3Kγ (Homo sapiens, UniProt P48736); test: PI3Kγ inhibitory activity (PI3-kinase HTRF assay, inhibition ratio); assay type: biochemical; conditions: 0.5 h, compound at 10 μmol/L; read-out: PI3Kg Inhibition Ratio % (10 μM)
Description: For each compound synthesized in the above Examples, PI3Kγ inhibitory activity was measured.
The PI3Kγ inhibitory activity of a compound was evaluated using PI3-kinase HTRF™ assay (Millipore) according to the following procedure:
To each well of a testing plate, 5 μL of a compound solution containing 10% DMSO (40 μmol/L as the concentration of the compound), 5 μL of a substrate solution (40 μmol/L phosphatidylinositol (4,5)-bisphosphate, 20 mmol/L MgCl2, 10 mmol/L DTT), and 5 μL of an enzyme solution (80 μg/mL PI-3 kinase y, 10 mmol/L MgCl2, 5 mmol/L DTT) were added, and then allowed to stand for 10 minutes.
Then, 5 μL of a reaction solution (40 μmol/L ATP, 10 mmol/L MgCl2, 5 mmol/L DTT) was added thereto. After reacting for 30 minutes at room temperature, 5 μL of a solution containing EDTA and biotinylated phosphatidylinositol (3,4,5)-triphosphate was added to quench the reaction.
5 μL of a detection reagent containing a europium-labeled anti-GST antibody, the GST-tagged PH domain, and allophycocyanin-labeled streptavidin was added thereto. After 18 hours, HTRF (excitation wavelength: 330 nm, measured wavelengths: 620 nm and 665 nm) was measured.
HTRF ratio was defined as the value obtained by dividing the amount of fluorescence obtained at the measured wavelength 665 nm by the amount of fluorescence obtained at 620 nm. The HTRF ratio in the absence of a compound was defined as 100% activity and the HTRF ratio in the absence of PI-3 kinase y was defined as 0% activity to calculate an inhibition ratio, which was defined as the PI3Kγ inhibitory activity of a compound at 10 μmol/L.

[1] = Metabolic stability test (pooled human liver microsome); assay type: in vitro ADME; conditions: percentage of test compound remained after 30 minutes, pooled human liver microsome 0.5 mg protein/mL, 1 mmol/L NADPH, 37° C., compound 0.5 μM
Description: After a subject compound was reacted for a certain time using a pooled human liver microsome commercially available, a reacted sample and an unreacted sample are compared to calculate a survival ratio, and then the degree of metabolism in the liver was evaluated.
0.2 mL of a buffer solution (50 mmol/L of Tris-HCl in pH 7.4, 150 mmol/L of potassium chloride, and 10 mmol/L of magnesium chloride) containing a human liver microsome of 0.5 mg protein/mL was reacted in the presence of 1 mmol/L NADPH at 37° C. for 0 or 30 minutes (oxidative reaction). After reacting, 50 μL of the reaction solution was added to 100 μL of a solution of methanol/acetonitrile (1/1 (v/v)), mixed, and then centrifuged at 3000 rpm for 15 minutes. The test compound in the supernatant was quantitated with LC/MS/MS. The amount of the compound at a reaction time of 0 minute was defined as 100% and, based on that, the percentage of the test compound remained after reacting for 30 minutes was calculated.

T1 sequence (P08684 whole entry): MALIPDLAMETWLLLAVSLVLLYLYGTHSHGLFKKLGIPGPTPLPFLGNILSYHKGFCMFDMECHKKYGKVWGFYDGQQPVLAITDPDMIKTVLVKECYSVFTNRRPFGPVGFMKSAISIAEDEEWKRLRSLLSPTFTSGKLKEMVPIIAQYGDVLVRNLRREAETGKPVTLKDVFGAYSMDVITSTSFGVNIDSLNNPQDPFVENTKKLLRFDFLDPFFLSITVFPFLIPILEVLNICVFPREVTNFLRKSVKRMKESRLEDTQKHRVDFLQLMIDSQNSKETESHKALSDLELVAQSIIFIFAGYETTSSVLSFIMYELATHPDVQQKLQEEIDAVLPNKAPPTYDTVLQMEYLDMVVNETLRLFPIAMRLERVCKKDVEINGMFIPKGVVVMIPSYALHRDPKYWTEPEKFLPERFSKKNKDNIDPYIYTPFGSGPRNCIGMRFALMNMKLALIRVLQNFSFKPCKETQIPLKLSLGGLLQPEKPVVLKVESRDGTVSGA
PI3Kγ, sequence (P48736 whole entry, species assumed): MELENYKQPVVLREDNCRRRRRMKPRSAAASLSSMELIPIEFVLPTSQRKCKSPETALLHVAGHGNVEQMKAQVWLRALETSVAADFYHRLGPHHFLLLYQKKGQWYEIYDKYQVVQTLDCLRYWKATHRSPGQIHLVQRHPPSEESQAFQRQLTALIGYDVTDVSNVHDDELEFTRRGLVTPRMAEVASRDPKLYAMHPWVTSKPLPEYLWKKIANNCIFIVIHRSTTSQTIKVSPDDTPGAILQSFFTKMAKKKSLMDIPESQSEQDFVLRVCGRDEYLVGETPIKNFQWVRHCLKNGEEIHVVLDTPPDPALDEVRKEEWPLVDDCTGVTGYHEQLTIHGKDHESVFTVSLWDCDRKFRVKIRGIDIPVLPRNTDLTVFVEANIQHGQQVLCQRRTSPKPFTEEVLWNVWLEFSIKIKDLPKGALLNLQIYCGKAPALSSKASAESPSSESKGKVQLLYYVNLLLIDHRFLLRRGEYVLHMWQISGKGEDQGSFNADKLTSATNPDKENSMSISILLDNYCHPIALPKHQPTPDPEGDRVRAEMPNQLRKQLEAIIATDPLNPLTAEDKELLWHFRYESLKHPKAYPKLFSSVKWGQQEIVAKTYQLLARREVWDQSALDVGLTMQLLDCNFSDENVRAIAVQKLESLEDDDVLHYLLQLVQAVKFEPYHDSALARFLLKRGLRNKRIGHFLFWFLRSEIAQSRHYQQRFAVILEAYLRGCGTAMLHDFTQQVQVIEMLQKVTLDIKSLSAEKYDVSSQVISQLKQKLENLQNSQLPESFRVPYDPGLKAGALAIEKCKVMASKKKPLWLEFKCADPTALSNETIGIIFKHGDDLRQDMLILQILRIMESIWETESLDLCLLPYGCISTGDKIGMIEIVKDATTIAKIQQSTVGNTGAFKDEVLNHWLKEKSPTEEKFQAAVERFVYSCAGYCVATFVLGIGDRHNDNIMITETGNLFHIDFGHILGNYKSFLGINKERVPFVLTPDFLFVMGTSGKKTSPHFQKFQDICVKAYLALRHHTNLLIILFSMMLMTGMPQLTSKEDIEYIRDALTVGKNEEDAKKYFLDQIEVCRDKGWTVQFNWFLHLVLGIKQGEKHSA

Row | SMILES | inhibition at 10 µM (PI3Kγ) [%] | hLMS_ox(at 0.5 μM) % [1] [%] | MBI (CYP3A4)
1 | COc1cc(N2CCc3nc(NC(=O)Nc4ccccc4C(C)(C)C)sc3C2)nc(OC)n1 [Compound I-40] |  |  | (−) (When 3 μmol/L or less, the compound is shown as (−))
2 | COc1cc(N2CCc3nc(NC(=O)Nc4cccc(F)c4C(=O)NC(C)C)sc3C2)nc(OC)n1 [Compound I-75] |  |  | (−) (When 3 μmol/L or less, the compound is shown as (−))
3 | COc1cc(N2CCc3nc(NC(=O)Nc4ccccc4C(=O)NC4(C#N)CC4)sc3C2)nc(OC)n1 [Compound I-20] | ≥ 95 |  | (−) (When 3 μmol/L or less, the compound is shown as (−))
4 | COc1cc(N2CCc3nc(NC(=O)Nc4ccccc4C(=O)NCC(C)C)sc3C2)nc(OC)n1 [Compound I-58] |  |  | (−) (When 3 μmol/L or less, the compound is shown as (−))
5 | COc1cc(OC)nc(N2CCc3nc(NC(=O)Nc4ccccc4C(=O)NC(C)C)sc3C2)c1 [Compound I-62] |  |  | (−) (When 3 μmol/L or less, the compound is shown as (−))
6 | COc1cc(N2CCc3nc(NC(=O)Nc4cnccc4C(=O)NC(C)(C)C)sc3C2)nc(OC)n1 [Compound I-23] | ≥ 95 |  | (−) (When 3 μmol/L or less, the compound is shown as (−))
7 | COc1cc(N2CCc3nc(NC(=O)Nc4ccccc4C(F)(F)F)sc3C2)nc(OC)n1 [Compound I-33] |  |  | (−) (When 3 μmol/L or less, the compound is shown as (−))
8 | COc1cc(N2CCc3nc(NC(=O)Nc4cccnc4C(=O)NC(C)(C)C)sc3C2)nc(OC)n1 [Compound I-22] | ≥ 95 |  | (−) (When 3 μmol/L or less, the compound is shown as (−))
9 | COc1cncc(N2CCc3nc(NC(=O)Nc4ccccc4C(=O)NC(C)C)sc3C2)c1 [Compound I-49] |  |  | (−) (When 3 μmol/L or less, the compound is shown as (−))
10 | COc1cc(N2CCc3nc(NC(=O)Nc4ccccc4C(=O)NCCC(C)C)sc3C2)nc(OC)n1 [Compound I-59] |  |  | (−) (When 3 μmol/L or less, the compound is shown as (−))
11 | COc1cc(N2CCc3nc(NC(=O)Nc4ccccc4OCc4ccccc4)sc3C2)nc(OC)n1 [Compound I-39] |  |  | (−) (When 3 μmol/L or less, the compound is shown as (−))
12 | COc1cc(N2CCc3nc(NC(=O)Nc4cccnc4C(=O)N(C)C(C)C)sc3C2)nc(OC)n1 [Compound I-24] | ≥ 95 |  | (−) (When 3 μmol/L or less, the compound is shown as (−))
13 | COc1cc(N2CCc3nc(NC(=O)Nc4ccccc4OC(F)(F)F)sc3C2)nc(OC)n1 [Compound I-34] |  |  | (−) (When 3 μmol/L or less, the compound is shown as (−))
14 | COc1cncc(C2(F)CCc3nc(NC(=O)Nc4ccccc4C(=O)NC(C)C)sc3C2)c1 (stereo not drawn) [Compound I-79] |  |  | (−) (When 3 μmol/L or less, the compound is shown as (−))

Further lines, with some results ahead:

Row | inhibition at 10 µM (PI3Kγ) [%] | hLMS_ox(at 0.5 μM) % [1] [%] | SMILES | MBI (CYP3A4)
15 | ≥ 95 |  | CC(C)NC(=O)c1ccccc1NC(=O)Nc1nc2c(s1)CN(c1ccnc(Cl)n1)CC2 [Compound I-98] | (−) (When 3 μmol/L or less, the compound is shown as (−))
16 | ≥ 95 |  | CS(=O)(=O)c1cccc(N2CCc3nc(NC(=O)Nc4ccccc4C(=O)NCC#N)sc3C2)c1 [Compound I-200] | (−) (When 3 μmol/L or less, the compound is shown as (−))
17 | 91 |  | Cc1cc(N2CCc3nc(NC(=O)Nc4cn(C)nc4C(=O)NC(C)C)sc3C2)nc(C#N)n1 [Compound I-186] | (−) (When 3 μmol/L or less, the compound is shown as (−))
18 | ≥ 95 | 101 | COc1cc(N2CCc3nc(NC(=O)Nc4ccccc4C(N)=O)sc3C2)nc(OC)n1 [Compound I-35] | (−) (When 3 μmol/L or less, the compound is shown as (−))
19 |  | 95.5 | CNC(=O)c1ccccc1NC(=O)Nc1nc2c(s1)CN(c1cc(OC)nc(OC)n1)CC2 [Compound I-56] | (−) (When 3 μmol/L or less, the compound is shown as (−))
20 | ≥ 95 | 87.6 | Cc1cc(N2CCc3nc(NC(=O)Nc4ccccc4C(=O)N[C@H](C)CO)sc3C2)nc(C#N)n1 [Compound I-185] | (−) (When 3 μmol/L or less, the compound is shown as (−))
21 | 89 | 92.6 | Cc1cc(N2CCc3nc(NC(=O)Nc4ccccc4C(=O)N[C@@H](C)CO)sc3C2)nc(C#N)n1 [Compound I-180] | (−) (When 3 μmol/L or less, the compound is shown as (−))
22 | ≥ 95 |  | COc1cc(N2CCc3nc(NC(=O)Nc4ccccc4C(=O)CC(C)C)sc3C2)nc(OC)n1 [Compound I-65] | (−) (When 3 μmol/L or less, the compound is shown as (−))
23 | 89 | 104 | Cc1cc(N2CCc3nc(NC(=O)Nc4ccccc4C(=O)N[C@@H](C)CO)sc3C2)nc(Cl)n1 [Compound I-168] | (−) (When 3 μmol/L or less, the compound is shown as (−))
24 | 83 | 90.5 | Cc1cc(N2CCc3nc(NC(=O)Nc4ccccc4C(=O)NC(C)C)sc3C2)nc(Cl)n1 [Compound I-163] | (−) (When 3 μmol/L or less, the compound is shown as (−))
25 |  | 83.3 | COc1cc(N2CCc3nc(NC(=O)Nc4cc(F)ccc4C(=O)NC(C)C)sc3C2)nc(OC)n1 [Compound I-74] | (−) (When 3 μmol/L or less, the compound is shown as (−))
